The subject of experiment [1] is HCT-15 human colon adenocarcinoma xenografts. Briefly: Tumour xenograft efficacy, tumour volume. The settings on record: HCT15 xenografts; PO or IP twice a day, 12 days; vs vehicle. In kind it is in vivo, mice. The method, then: A, B: is a graphical representation of tumour volumes estimated periodically as indicated. Mice bearing established tumour xenografts using HCT15 or MDA-MB-231 cells were treated orally (PO) or intraperitoneally (IP) twice a day with the indicated doses of Compound 1 or Compound 16 for 12 or 15 days. Paclitaxel (PTX) was given intravenously at dose of 40 mg/kg, 3 times every 4 days. Error bars show ±S.D. from mean tumour volumes obtained from 6 mice. Student's t-test was performed to determine the statistical significance (*=p<0.005). C: is a bar graph showing quantification of cells (n>100 per condition) with misaligned chromosomes and multipolar mitotic-spindles. […] tumour sections treated with Compound 16 (80 mg/kg) or control vehicle for 12 days were stained with anti-β-tubulin antibodies and DAPI. The percentage of cells with misaligned chromosomes and multipolar mitotic-spindles was quantified and plotted with mean values±S.D.
Mice bearing established tumor xenografts using HCT15 or MDA-MB-231 cells were treated orally (PO) or intraperitoneally (IP) twice a day with the indicated doses of Compound 1 or its derivative Compound 16 (b5) for 12 or 15 days, respectively. For comparison, paclitaxel (PTX) was given intravenously to mice bearing established tumour xenografts using HCT15 at dose of 40 mg/kg, 3 times every 4 days.

Experiment [2] has as its system non-transformed normal BJ cells. Briefly: BrdU incorporation and FACS analysis (cell cycle arrest). In kind it is cell-based, human. The method, then:
A: is output from a FACS analysis of isogenic-non-transformed, without (panels a-c) (WT) or with (panels d-f) shRNA-mediated knockdown of p53 (p53KD), and oncogene-transformed BJ cells (panels g-i), each treated with 0, 5 or 2.5 μM Compound 1 (a131) for 24 h. Cells were doubly stained with PI (horizontal axis) and BrdU (vertical axis). The BrdU-positive population in panels a-c are indicated as arrows. B: is a diagrammatic representation of an immunoblot analysis showing isogenic non-transformed (normal) and oncogene-transformed BJ cells (transformed) treated with Compound 1 (a131) at 0, 2.5 or 5 μM for 24 h or 48 h. Cells were harvested and total lysates were analysed by detecting p53 and p21. Antibodies raised against β-actin were used as an internal loading control. C and D are histograms showing the percentage of bromodeoxyuracil (BrdU)-positive non-transformed (normal) BJ cells. C: Cells were treated with Group 1 Compound 1 (a131) at 2.5 and 5 μM, Compound 23 (b36) at 2.5 and 5 μM, and Compound 21 (b35) at 5 μM, and Group 2 Compound 25 (a166) at 2.5 and 5 μM, for 24 h. Cells were doubly stained with propidium iodide (PI) and BrdU, and subjected to FACS analysis. The BrdU-positive population are plotted as bars. D: Cells were treated with Group 1 Compound 1 (a131), Compound 16 (b5), and Compound 17 (b9); Group 2 Compound 13 (b12), Compound 12 (b16) and Compound 25 (a166), and Group 3 Compound 3 (a159) at 5 μM for 48 h. The percentage of cells with BrdU positive population, in comparison with DMSO control vehicle, is shown with mean values±S.D. (n=3).
Isogenic non-transformed and oncogene-transformed BJ cells (cultured as in Biology Example 3) were treated with Compound 1 at final concentrations of 2.5 and 5 μM for 24 h. The treated cells were then treated with 30 μM final concentration of 5-bromo-2′-deoxyuridine (BrdU, SIGMA) for 1 h to detect DNA synthesis as a marker for cell proliferation. Subsequently, the cells were fixed in EtOH at 4° C. overnight and permeabilized with 2N HCl/0.5% Triton X-100 for 30 min. The cells were then treated with 0.1M sodium tetraborate for 2 min and stained with anti-BrdU antibody (Invitrogen, Cat#B35129) for 60 min, followed by a 30 min treatment with 20 μg/mL of propidium iodide (PI) and 10 μg/mL RNaseA.
Furthermore, the abilities of additional five (5) Compounds to arrest cells at the stage of G1/S phase of the cell cycle were evaluated. […] The abilities of these Compounds to arrest cells at the stage of G1/S phase of the cell cycle were then measured by using BrdU incorporation assay and FACS analysis. The percentage of cells with BrdU positive population in comparison with DMSO control vehicle was determined and plotted with mean values±S.D. (n=3).
Background: Dividing cells build labelled thymidine or BrdU into new DNA.

Experiment [3] deals with cancer cell lines (panel of thirty). Briefly: MTT growth inhibition, mean over cancer cell line panel. In kind it is cell-based. To be noted: Homo sapiens, 72 h. The method, then:
FIG. 7 is a graphical representation showing that Compound 1 (a131) induces selective cell growth inhibitory effects in a broad spectrum of human cancer cells. A panel of cancer and normal cell lines were treated with Compound 1 (a131) for 72 h and a mean G150 value (the concentration required to achieve 50% growth inhibition) was determined. A Student's t-test indicated a statistically significant difference at p<0.05 (p=0.017) between normal cells and cancer cells treated with Compound 1 (a131). […]
The MTT assay was performed by adding thiazolyl blue tetrazolium bromide (MTT reagent, Invitrogen) at a concentration of 0.5 mg/mL to each cell culture and the resulting mixture incubated for 4 h at 37° C. […] The absorbance of each well at 540 nm and 660 nm was measured using a microplate reader (Benchmark plus, BIO-RAD). The optical density (OD) values were calculated by subtracting the absorbance at 660 nm from the absorbance at 540 nm. […]

On to `CN1CCN(CC(=O)n2cc(/C(C#N)=C/c3cccc4cnccc34)c3ccccc32)CC1` [Compound 16, (Z)-3-(isoquinolin-5-yl)-2-(1-(2-(4-methylpiperazin-1-yl)acetyl)-1H-indol-3-yl)acrylonitrile], for which, in experiment [1], the “anti-tumour effect (tumour volume)” value is listed as “showed marked anti-tumour effects”.

On to `N#C/C(=C\c1cccc2ncccc12)c1c[nH]c2ccccc12` [Compound 3, (Z)-2-(1H-indol-3-yl)-3-(quinolin-5-yl)acrylonitrile], for which, in experiment [2] (5 μM, 48 h (FIG. 9D)), the “arrest at the G1/S phase of the cell cycle (BrdU incorporation)” value was “failed to do so”.

One may read the GI50 as the concentration at which growth is held to half of that of the control. A higher GI50 goes with less potent growth inhibition. In experiment [3], `N#C/C(=C\c1cccc2cnccc12)c1c[nH]c2ccccc12` [Compound 1, (Z)-2-(1H-indol-3-yl)-3-(isoquinolin-5-yl)acrylonitrile] came in with a GI50 of 1700 nM. In addition, the BrdU-positive cell population result in experiment [2] (24 h, 2.5 and 5 μM (FIG. 9A, 9C)) is listed as “markedly decreased the number of BrdU-positive non-transformed normal BJ cells”. For the same compound, the “anti-tumour effect (tumour volume)” value in experiment [1] was “showed marked anti-tumour effects”.

Source of the values: US10308631B2, “Selective anti-cancer compounds” (NATIONAL UNIVERSITY OF SINGAPORE, priority 2015, dated 2019).
